Data set [1] concerns ALD patient B-lymphocytes. Put plainly: Reduction in C26:0 LPC in ALD patient B-lymphocytes in vitro. The format is cell-based. As to conditions: Homo sapiens, Lymphocyte, half maximal reduction in C26:0 LPC. The protocol: Lysophosphatidylcholine (LPC) VLCFA were generated from straight chain VLCFA (SC-VLCFA) and were used clinically for newborn screening (Vogel et al., Mol. Genet. Metab. (2015) 114(4):599-603). In vitro efficacy studies were performed by measuring LPC VLCFA level (measured as LPC synthesis) in various cell lines, specifically in 1) human HEK cells, 2) patient derived cells, and 3) human microglia, which are disease relevant CNS cells. Compound 87's dose response relationships and IC50 values were measured in HEK cells, primary patient fibroblasts, immortalized patient lymphocytes, and a human microglial cell line. To measure LPC VLCFA synthesis, the foregoing cells were grown in the presence of ^13C labeled acetate (13C Labeled sodium acetate; Sigma Aldrich #282014) and Compound 87 (prepared in DMSO) for about 48 hours. Primary patient fibroblasts and immortalized primary patient lymphocytes were acquired from the Coriell Cell Repository at the Coriell Institute for Medical Research.
Immortalized primary patient lymphocytes cell lines (cell lines GM13496, GM13497, and GM04674) were obtained from the Coriell Cell Repository at the Coriell Institute for Medical Research. Lymphocytes were cultured and plated at a desired cell density, such as 1×10^5 cells/well. […] The plate was sealed with a plate tape and put at −80° C. for further VLCFA extraction and VLCFA quantitation on LC-MS, as described below.
VLCFA Extraction and Quantitation on LCMS:
Treated cells were transferred to a polypropylene v-bottom plate and then centrifuged at 1690×g for 10 minutes. […] The plates were then sealed with pierceable capmats (Micronic MP53017) and stored at −20° C. until further analyzed using UPHLC/Mass Spectrometry Readout, as described above in example 2.1, which measured the integration of ^13C into lysophosphatidylcholine (LPC) indicated fatty acid elongation. Specifically, C16:0, C18:0, C20:0, C22:0, C24:0, and C26:0 LPC levels were measured via mass spectroscopy as described above and IC50 values indicated half maximal reduction in C26:0 LPC levels.

Data set [2] in a line: Metabolic intrinsic clearance in monkey hepatocytes. As to conditions: cryopreserved hepatocytes in suspension, pH 7.5, 0.5 million cells/mL, incubation for 4 hours. The format is in vitro ADME, cynomolgus monkey. The protocol:
(§1) The metabolic intrinsic clearance (CLint) of Compound 87 was determined in human, monkey, dog, rat, and mouse hepatocytes. Cryopreserved human hepatocytes (Lot Hue50c), monkey hepatocytes (cynomolgus; Lot Cy328), dog hepatocytes (beagle, Lot Db235), rat hepatocytes (Sprague Dawley; NNH), and mouse hepatocytes (CD-1; Lot Mc522) were obtained from ThermoFisher (Paisley, UK). In separate experiments, compound 87 (1 μM) was incubated with hepatocytes from each species (0.5 million cells/mL, suspension) in Dulbecco's Modified Eagle's Medium (DMEM) supplemented with 4-(2-Hydroxyethyl)piperazine-1-ethanesulfonic acid (HEPES, 9 mM) and fructose (2.2 mM) (pH 7.5). Samples were quenched with acetonitrile and analyzed by LC-MS/MS. The mean CLint for Compound 87 in human, monkey, dog, rat, and mouse hepatocytes after incubation for 4 hours was determined to be ≤2.5, ≤2.5, 7.2, 23.6 and 10.7 μL/min/million cells. Based on these date, Compound 87 was low to moderately metabolized in hepatocytes in mouse, rat, dog, monkey, and human, and the rank order of stability at […] was approximately human>monkey>dog>mouse>rat. […] The metabolic stability of Compound 87 was not expected.

A short description of data set [3]: Metabolic intrinsic clearance in mouse hepatocytes. The format is in vitro ADME, CD-1 mouse. As to conditions: CD-1, cryopreserved hepatocytes in suspension, pH 7.5, 0.5 million cells/mL, incubation for 4 hours. The protocol:
as §1

Consider `O=C(Nc1ccn(-c2ccnc(F)c2)n1)C1(c2ccccc2F)CC1` [Compound 87, 1-(2-fluorophenyl)-N-[1-(2-fluoro-4-pyridyl)pyrazol-3-yl]cyclopropanecarboxamide], for which the IC50 in data set [1] (Patient Lymphocyte (CALD)) worked out at 15 nM; in data set [1] (Patient Lymphocyte (Het 1)), 5 nM; in data set [1] (Patient Lymphocyte (Het 2)), 9 nM. In addition, the hepatocyte CLint at 1 μM is no more than 2.5 µL/min/1e6 cells in data set [2] and 10.7 µL/min/1e6 cells in data set [3].

Values taken from patent US20180251431A1 (VERTEX PHARMACEUTICALS INCORPORATED, priority 2016, published 2018).
